Columns and labels:
[1] = tested on: cetuximab or the meditope-enabled trastuzumab; assay: Lifetime of the meditope-Fab interaction; assay type: binding; conditions: 37° C.
Excerpt: Since the cyclic, twelve residue peptide binds in a hole that runs through the middle of the Fab arm, Applicants have named it a meditope. Antigen binding is not altered after grafting or in the presence of the meditope^14-15. As such, Applicants understood that they could use the meditope interaction as a hitch for the delivery of cytotoxins, imaging agents, or biologics. […] Applicants further improved the lifetime by creating a mechanical bond by modifying the arginine at position 8 with an azide, threading it through the Fab hole, and using click chemistry to sterically block its dissociation. While the lifetime of this mechanically interlocked Fab complex is difficult to ascertain, Applicants were capable of imaging tumors in animal xenografts.

[2] = tested on: mutated I83 trastuzumab memAb (I83 mutated to glutamate); assay: SPR of meditope peptide variants binding to immobilized memAb variant; conditions: SPR at 37° C.; original meditope; vs original trastuzumab memAb
Protocol: FIG. 3A-3H. […] FIG. 3E-H) SPR sensograms collected at 37° C.

SKBR3 cells = assay: Cell viability (CellTiter-Glo) for DM1 and MMAE conjugates; assay type: cell-based; conditions: 72 h, read-out: EC50 (cell viability / lysis)

Ac-CQFDLSTRRLKC-Am (Ac-CQFDLSTRRLKC-NH2; not fully specified (bridges); printed as Ac-CQFDLSTRRLKC-Am; also: cyclic, kind not given here) [original meditope, serine at position 6]
lifetime of the meditope peptide on the Fab [1]: seconds
increase in affinity with I83 mutated to glutamate [2]: ~25

trastuzumab emtansine [clinical DM1]
EC50 (SKBR3 cells): 0.093 nM

Reference: patent publication US20200368364A1, “CYSTEINE PEPTIDE-ENABLED ANTIBODIES” (City of Hope, priority 2016, published 2020)
